Experimental data from ChEMBL document CHEMBL1201862, “PubChem BioAssay data set” (2004).
One block for each compound: values may come before it. Calls of active or inactive are those of the source.

What was measured:
Cytochrome P450 2C19 = Cytochrome P450 2C19 (Homo sapiens, UniProt P33261); assay: Cytochrome panel assay with activity outcomes. Panel member name: p450-cyp2c19 Compounds with AC50 equal or less than 10 uM are considered active; type: functional
[1] = Trypanosoma cruzi growth suppression in host cells – NIH3T3 host cells, beta-gal luminescence, confirmation (AID 2044); type: functional, cell-based;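 note: intracellular parasites grown in NIH/3T3 mouse fibroblasts as host cells; luminescent beta-galactosidase reporter signal from transgenic T. cruzi replicating inside host cells; inhibitors lower the luminescence signal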
[2] = NIH3T3 cell viability loss – ATP luminescence, mouse fibroblasts, counter-screen, dose response (AID 2010); type: functional, cell-based;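 note: cells exposed to compound for about 90 hours before reading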
H9c2 = assay: cells; type: functional, cell-based; conditions: Rattus norvegicus, H9c2, Myocardium;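 note: confirmatory concentration-response retest of ultra-high-throughput screening hits for modulation of myocardial damage; cell death induced by hydrogen peroxide oxidative stress; compound pretreatment for 60 min then peroxide exposure for 2 h; potency is for protecting the cells against peroxide damage rather than for killing them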
Cytochrome P450 1A2 = biological target: T1, Cytochrome P450 1A2 (Homo sapiens, UniProt P05177);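 note: PubChem cytochrome P450 panel assay, CYP1A2 panel member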
T1 sequence (P05177 whole entry): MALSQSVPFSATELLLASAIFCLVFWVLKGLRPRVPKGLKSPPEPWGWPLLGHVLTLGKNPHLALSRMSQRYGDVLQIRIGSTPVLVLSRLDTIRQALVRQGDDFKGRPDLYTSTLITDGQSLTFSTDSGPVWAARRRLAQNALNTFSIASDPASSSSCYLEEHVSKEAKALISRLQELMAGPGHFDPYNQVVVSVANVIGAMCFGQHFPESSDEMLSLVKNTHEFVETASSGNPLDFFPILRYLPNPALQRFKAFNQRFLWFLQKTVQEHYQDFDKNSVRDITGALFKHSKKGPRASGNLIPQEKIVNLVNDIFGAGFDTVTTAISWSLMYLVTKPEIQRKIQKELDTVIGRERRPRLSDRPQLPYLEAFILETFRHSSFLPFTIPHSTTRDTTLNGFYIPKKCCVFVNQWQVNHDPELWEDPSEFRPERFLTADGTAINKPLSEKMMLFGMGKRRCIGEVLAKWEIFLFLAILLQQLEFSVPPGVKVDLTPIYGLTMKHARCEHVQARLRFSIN

[3] = Luminescence Cell-Based Dose Retest to Confirm Inhibitors of Cancer Stem Cells. [Related pubchem assays (depositor defined):AID2717, AID2721]; type: functional; conditions: Homo sapiens
Cytochrome P450 2C9 = Cytochrome P450 2C9 (Homo sapiens, UniProt P11712)
Cytochrome P450 2C9, sequence (P11712 whole entry): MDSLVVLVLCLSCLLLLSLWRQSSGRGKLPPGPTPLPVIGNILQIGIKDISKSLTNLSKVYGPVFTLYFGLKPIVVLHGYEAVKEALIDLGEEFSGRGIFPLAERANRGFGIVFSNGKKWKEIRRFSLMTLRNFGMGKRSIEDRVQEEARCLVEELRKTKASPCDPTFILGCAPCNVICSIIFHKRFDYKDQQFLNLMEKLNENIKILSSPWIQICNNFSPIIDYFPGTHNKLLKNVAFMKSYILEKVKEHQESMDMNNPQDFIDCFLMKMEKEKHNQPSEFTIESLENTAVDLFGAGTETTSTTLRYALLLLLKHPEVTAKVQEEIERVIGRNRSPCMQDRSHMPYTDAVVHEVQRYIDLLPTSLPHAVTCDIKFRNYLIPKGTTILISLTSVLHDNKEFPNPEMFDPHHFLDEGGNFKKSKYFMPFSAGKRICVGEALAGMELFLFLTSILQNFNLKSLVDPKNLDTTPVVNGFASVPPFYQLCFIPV

Streptococcus = assay: GAS UMAA2166 growth inhibition – luminescence, BacTiterGlo, counter-screen for streptokinase expression inhibitor project, dose response (AID 1915); type: functional, organism-based;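 note: potency for reduction of bacterial viability or growth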
[4] = test system: Streptococcus sp. 'group A'; assay: Streptococcus pyogenes SK(-)GAS viability under kanamycin – luminescence, BacTiterGlo, confirmation, counter-screen for streptokinase expression inhibitor project, dose response (AID 1900); type: functional, organism-based

Cytochrome P450 2C19, sequence (P33261 whole entry): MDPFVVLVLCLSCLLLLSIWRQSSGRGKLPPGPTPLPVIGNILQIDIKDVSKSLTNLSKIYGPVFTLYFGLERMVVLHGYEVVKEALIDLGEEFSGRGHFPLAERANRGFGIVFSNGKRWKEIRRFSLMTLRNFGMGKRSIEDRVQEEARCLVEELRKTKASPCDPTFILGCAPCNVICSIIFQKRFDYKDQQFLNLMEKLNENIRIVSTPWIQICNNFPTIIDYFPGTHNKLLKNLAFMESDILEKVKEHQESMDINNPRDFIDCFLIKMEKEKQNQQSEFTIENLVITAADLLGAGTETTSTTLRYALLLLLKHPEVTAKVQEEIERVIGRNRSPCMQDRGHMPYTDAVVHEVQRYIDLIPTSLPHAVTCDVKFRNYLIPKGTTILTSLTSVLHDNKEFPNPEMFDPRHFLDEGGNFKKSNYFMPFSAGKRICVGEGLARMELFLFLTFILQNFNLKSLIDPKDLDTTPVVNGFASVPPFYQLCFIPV

AC50 (Cytochrome P450 2C19): inconclusive
SMILES: Cc1[nH]n(-c2ccc(S(=O)(=O)O)cc2)c(=O)c1/N=N\c1ccccc1

SMILES: CCCCCNc1nc(-c2ccccc2)nc(-n2ccnc2)n1
EC50 [1]: 1.55 µM (active)
EC50 [2]: > 60 µM (inconclusive)

SMILES: O=C(CN1C(=O)COc2ccccc21)N(Cc1cccnc1)Cc1ccccc1F
EC50 [1]: 0.26 µM (active)
EC50 [2]: > 60 µM (not active)

SMILES: O=C(C1=C[C@H](C2CC2)C[C@H](OCc2ccc(CO)cc2)O1)N1CCN(Cc2ccccc2)CC1
EC50 [1]: 0.541 µM (active)
EC50 [2]: > 60 µM (not active)

SMILES: COc1ccc(-n2nc(C(=O)NCC(=O)Nc3cc(OC)c(OC)c(OC)c3)c3ccccc3c2=O)cc1Cl
IC50 (H9c2): > 79 µM (inactive)

AC50 (Cytochrome P450 1A2): 12.6 µM (inconclusive)
SMILES: CS(=O)(=O)Nc1ccc([N+](=O)[O-])cc1Oc1ccccc1 [NIMESULIDE]

SMILES: O=[N+]([O-])c1ccccc1/C=N/N1CCN(c2ccncc2S(=O)(=O)N2CCCCC2)CC1
EC50 [1]: 0.55 µM (active)
EC50 [2]: > 60 µM (not active)

SMILES: COC(=O)Nc1nc2cc(-c3nnc(O)c4ccccc34)ccc2[nH]1
AC50 [3]: 11.2 µM (active)

SMILES: COc1ccc(-c2csc(NC(=O)CCCc3nc(O)c4ccccc4n3)n2)cc1OC
IC50 (H9c2): > 79 µM (inactive)

AC50 (Cytochrome P450 1A2): 20 µM (inconclusive)
AC50 (Cytochrome P450 2C19; read-out: AC50): 20 µM (inconclusive)
SMILES: COC(=O)c1ccc(C#CC(NP(=O)(c2ccccc2)c2ccccc2)c2ccccc2)cc1 (stereo not given)

AC50 (Cytochrome P450 2C19; read-out: AC50): 20 µM (inconclusive)
SMILES: COC(=O)Cn1nc(-c2ccccc2)n(-c2ccccc2)c1=S

AC50 (Cytochrome P450 2C9): 20 µM (inconclusive)
SMILES: O=c1oc2c(CN3CCOCC3)c(O)ccc2c2ccccc12

SMILES: COc1ccc(-c2cc(C3CCN(Cc4ccc([N+](=O)[O-])cc4)CC3)[nH]n2)cc1
EC50 [1]: 1.1 µM (active)
EC50 [2]: > 60 µM (not active)

SMILES: CN(C)CCCN/C=C1/C(=O)N(Cc2ccc3c(c2)OCO3)C(=O)c2ccccc21
EC50 [1]: < 0.1 µM (active)
EC50 [2]: 10.1 µM (active)

SMILES: CCN1CCN(Cc2cccc(Oc3ccccc3)c2)CC1
EC50 [1]: 1.44 µM (active)
EC50 [2]: > 30 µM (not active)

AC50 (Cytochrome P450 1A2): 20 µM (inconclusive)
SMILES: COC(=O)[C@@]1(Cc2ccc(F)cc2)[C@H]2c3cc(C(=O)N4CCCC4)n(CCc4ccc(O)c(O)c4)c3C[C@H]2CN1C(=O)c1ccccc1

SMILES: COc1cc(/C=N\NC(=O)c2cccnc2)ccc1OC(=O)c1ccccc1Cl
IC50 (H9c2): > 79 µM (inactive)

SMILES: O=C1Nc2ccccc2Oc2cc([N+](=O)[O-])ccc21
EC50 [1]: 1.46 µM (active)
EC50 [2]: 9.78 µM (active)

SMILES: COC(=O)C(C)N=C(S)N1CCN(c2c(F)cc3c(=O)c(C(=O)O)cn(C4CC4)c3c2OC)CC1C (stereo not given)
EC50 (Streptococcus): 4.39 µM (active)
EC50 [4]: 2.85 µM (active)

AC50 (Cytochrome P450 2C9): 20 µM (inconclusive)
AC50 (Cytochrome P450 1A2): 6.31 µM (inconclusive)
SMILES: N=c1sccn1CC(=O)Nc1cccc(Oc2ccccc2)c1

SMILES: CC(=O)c1ccc(NC(S)=Nc2ccc(Br)c(Cl)c2)cc1
EC50 (Streptococcus): 8.74 µM (active)
EC50 [4]: 7.95 µM (active)

AC50 (Cytochrome P450 2C19; read-out: AC50): 0.0708 µM (inconclusive)
SMILES: CCc1ccc(C(=O)COC(=O)C(Cc2ccccc2)NC(=O)C2CCC(C)CC2)cc1 (stereo not given)

AC50 (Cytochrome P450 2C9): 20 µM (inconclusive)
SMILES: O=C(NCc1cccnc1)C1COc2ccccc2O1 (stereo not given)

AC50 (Cytochrome P450 1A2): 0.0794 µM (inconclusive)
AC50 (Cytochrome P450 2C19; read-out: AC50): 6.31 µM (inconclusive)
SMILES: O=C(c1c[nH]c(=O)n(-c2ccccc2)c1=O)N1CCc2ccccc21

SMILES: CN(C)CCC=C1c2ccccc2CCc2ccccc21 [AMITRIPTYLINE]
AC50 (Cytochrome P450 1A2): 15.8 µM (inconclusive)

SMILES: COc1ccccc1NC(=O)c1ccc(NC(=O)Cc2nnc(O)c3ccccc23)cc1
IC50 (H9c2): > 79 µM (inactive)

SMILES: Cc1ccc(-c2nnc(Nc3ccc(CC(N)=O)cc3)c3ccccc23)cc1
EC50 [1]: 0.208 µM (active)
EC50 [2]: > 60 µM (not active)

SMILES: COc1ccc(N/N=C(/C(C)=O)N2CCCc3ccccc32)cc1
AC50 [3]: 1.58 µM (active)

SMILES: CCN(C(=O)c1cc2c(O)nc3ccc(C)cc3c2s1)c1ccccc1C
EC50 [1]: 0.857 µM (active)
EC50 [2]: > 60 µM (not active)

AC50 (Cytochrome P450 2C19; read-out: AC50): 25.1 µM (inconclusive)
SMILES: CCCCOc1ccc(-c2nnn(CC(=O)c3c[nH]c4ccccc34)n2)cc1

SMILES: Cc1ccc(N/N=C/c2cccnc2)cc1
AC50 [3]: 4.39 µM (active)

SMILES: OC(COc1ccc(OCC(O)CN2CCN(Cc3ccccc3)CC2)cc1)CN1CCN(Cc2ccccc2)CC1 (stereo not given)
EC50 [1]: 0.789 µM (active)
EC50 [2]: > 60 µM (not active)

SMILES: CC1=C2[C@@H]3OC(=O)[C@@H](C)[C@@H]3CC[C@]2(C)C=CC1=O
AC50 (Cytochrome P450 1A2): 10 µM (inconclusive)

AC50 (Cytochrome P450 2C9): 10 µM (inconclusive)
SMILES: CCCC(=O)Nc1cccc(Oc2nc(C)cc(C)c2C#N)c1
